Experimental data reported in patent US20080261980A1, “Use of Thiazolidinone Derivatives as Antiangiogenic Agents” (Cell Therapeutics, Inc., priority 2004, published 2008).

How the values were obtained:
[1] = tested on: VEGF promoter (rat VEGF gene promoter-luciferase reporter in Hep3B cells); assay: Luciferase assay in Hep3B-VEGF Luciferase cells, hypoxia induced by deferoxamine; assay type: cell-based, human; conditions: deferoxamine about 100 μM, 18-20 hours, 50% inhibition of the luciferase signal
Method: (§1) The compounds having inhibitory activity in the Hif-1a/p300 assay described above were evaluated using a cellular test on genetically modified human hepatocarcinoma Hep3B cells (Hep3B-VEGFLuciferase) in order to stably express a vector in which the Open Reading Frame of firefly Luciferase is under the control of the rat VEGF gene promoter.
Hif-1 induction by deferoxamine (which causes hypoxia) induces luciferase transcription through activation of the VEGF promoter, which in turn increases luciferase activity, which can be measured with a commercially available kit. The compounds interfering with the Hif-1a/p300 complex inhibit Hif-dependent luciferase activation, resulting in a reduction of luciferase activity. Therefore, this assay allows to evaluate the activity of the compounds towards the VEGF promoter, which is essential to VEGF production and subsequent tumor angiogenesis.
(§2) The Hep-3B-VEGF Luciferase cell line was obtained according to the following procedure.
(§3) Human hepatocarcinoma cells Hep-3B (ATCC reference No. HB-8064) were seeded onto 6-well plates at a concentration of 2.5×10^5 cells/well in 2 ml DMEM/10% FCS and the following day were transfected using Fugene 6 (Roche Biochemicals®). In each well, the transfection mixtures contained 6 μl of the transfection reagent Fugene 6, 1 μg of the pxp2-VEGF-luciferase reporter plasmid (VEGF rat promoter, NCBI GenBank No. of accession U22373, Levy et al., J. Biol. Chem. 270 (22), 13333-13340, 1995), and 10 ng of pcDNA3.1(+)plasmid (INVITROGEN) which makes the cells resistant to neomycin. Transfection was carried out according to the manufacturer's instructions.
(§4) A suitable cell population (phenotypically resistant to neomycin) was selected by means of a cloning approach based on the “dilution limit” procedure (Sambrook J., Fritsch E. F. and Maniatis T. (1989) Molecular Cloning, A Laboratory Manual; Cold Spring Harbor Laboratories). The subsequent assays for Luciferase expression/activity (Luciferase assay) and for the quantification of secreted VEGF in the supernatant (ELISA secreted VEGF test) were carried out with the stably transfected selected cells.
(§5) The following experimental protocol was used:
(§6) Day 1. Hep-3B-VEGF Luciferase cells were seeded onto “blank” 96-wells plates (Greiner) at a density of 1×10^4 cells/well/125 μl of medium, then left to adhere overnight in thermostat (37° C./5% CO2).
(§7) Day 2. 75 μl of “3.2× working solutions” of compound (previously prepared in culture medium so that the DMSO concentration is 1.6% v/v) were added to the cells (partial volume/well=200 μl, partial concentration of compound=1.2×, partial concentration of DMSO=0.6%). After 1 hour incubation in thermostat, hypoxia was induced chemically by addition of 40 μl/well of a 6× (600 μM) stock solution of deferoxamine (final volume/well=240 μl, final concentration of compound=1×, final concentration of DMSO=0.5%, final concentration of deferoxamine=1×≈100 μM). The plates were then thermostated for further 18-20 hours.
(§8) Day 3. The Luciferase assay and the secreted VEGF ELISA test were carried out as follows.
Quantification of the expression of the Luciferase reporter gene was performed by means of the Bright Glo Reagent (Promega). After removing the supernatant and washing once with PBS, 40 μl/well of Bright Glo Reagent were added to blank 96-well plates with Hep3B/VEGF-Luciferase cells. The expression levels of the reporter gene were determined by reading the plates with a luminometer.
(§9) IC50 values (concentration of the compound that causes 50% inhibition of the luciferase signal or 50% reduction of secreted VEGF) for some compounds of the invention are reported in table 2.

[2] = tested on: secreted VEGF (Hep3B/VEGF Luciferase cells); assay: Secreted VEGF ELISA test in Hep3B-VEGF Luciferase cells, hypoxia induced by deferoxamine; assay type: cell-based; conditions: Homo sapiens, deferoxamine about 100 μM, 18-20 hours, 50% reduction of secreted VEGF
Method: as §1, §2, §3, §4, §5, §6, §7, §8
Quantification of secreted VEGF was performed using the “DuoSet Elisa Development System human VEGF” kit (R&D Systems). […] of the supernatant from the “blank” 96-well plates with the cells of the Hep3B/VEGF Luciferase clone were transferred into transparent 96-well plates (Maxisorp) and assayed according to the indications of the kit manufacturer.
as §9

[3] = target: T1, Biot-HIF-1α786-826/GST-p300323-423 (Homo sapiens, UniProt Q09472); assay: Primary biochemical assay for inhibition of the Hif-1α/p300 interaction (DELFIA fluorescence assay); assay type: binding; conditions: biotinylated Hif-1α 786-826 / GST-p300 323-423, mean of two independent experiments
T1 construct: the p300 region ranging from amino acids 323 to 423; Hif-1α fragment corresponding to C-terminal 786-826 amino acids; made in house; host or cells: E. coli BL21 (DE3), vector pGEX-4T-1
T1 sequence (Q09472 323-423): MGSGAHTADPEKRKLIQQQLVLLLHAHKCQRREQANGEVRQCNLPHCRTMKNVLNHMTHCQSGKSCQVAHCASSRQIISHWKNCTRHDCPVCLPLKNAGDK
Method: Primary Biochemical Assay for the Inhibition of Biot-HIF-1α^786-826/GST-p300^323/423
The compounds were evaluated for their ability to inhibit the interaction between Hif-1α and p300 using a fluorescence assay (DELFIA™). The procedure described by Freedman S J at al., Nature Structural Biology 2003, 10 (7), 504-512 was suitably modified.
The human biotinylated Hif-1α fragment corresponding to C-terminal 786-826 amino acids (Biotinylated Hif-1α^786-826) was obtained from AnaSpec Inc (San Jose, Calif., USA) and used without further purifications.
A construct expressing the GST-p300^323-423 fragment was transformed in the BL21 strain (DE3) of E. coli. Said construct was obtained by cloning in the expression vector pGEX-4T-1 (Amersham No. 27-45-80-01) the DNA sequence which encodes for the p300 region ranging from amino acids 323 to 423; the DNA sequence was obtained by PCR (Polymerase Chain Reaction). Protein expression was induced with 1 mM isopropyl-1-thio-13-D-galactopyranoside (IPTG). The bacteria were lysed by sonication in the presence of a suitable buffer (50 mM Tris.HCl pH 8.00, 100 mM NaCl, 0.1 mM ZnSO4, 1 mM DTT, 0.1 mg/ml lysozyme and a tablet of Complete EDTA-free Protease Inhibitor Cocktail Tablets (Roche, catalogue number 1 873 580)) and the GST fusion protein present in the soluble fraction was purified on a Glutathione-Sepharose 4B resin (Amersham Biosciences; no. 27-4574-01). The protein final concentration was determined according to Bradford with the Biorad assay (Bradford M., Anal. Biochem., 72, 248, (1976)) and sample purity was evaluated by SDS-PAGE. The samples were stored at −80° C. in 50% glycerol.
The assay was carried out using NUNC Maxisorp 96-well plates as follows.
C96 NUNC Maxisorp plates (from Nunc, product No. 446612) were incubated overnight with streptavidin (Sigma; product No. S 4762) at a final concentration of 1 μg/ml in PBS buffer (Phosphate Buffered Saline 10 mM sodium phosphate, 150 mM sodium chloride pH 7.4). Each well was subsequently washed with 3×300 μl of TBST buffer (50 mM Tris-HCl pH 8.0, 150 mM NaCl, 0.05% (v/v) Tween 20). Each well was then added with 100 μl of a 10 nM solution of biotinylated Hif-1α^786-826 in TBSB (50 mM Tris-HCl pH 8.0, 150 mM NaCl, 5% (w/v) BSA (Sigma, product No. A 2153)) and incubated for 1 h at 25° C. In the last row of each plate, TBSB buffer only was added. Each well was subsequently washed with 3×300 μl of TBST buffer. The thus prepared plate represented the assay plate.
Separately, a plate (daughter plate) containing in each well 10 μl of each test compound dissolved in DMSO to a concentration of 10 μM was prepared. This plate was added with 100 μl of a 111 pM solution of GST-p300^323-423 diluted in the incubation buffer (TBSB added with 0.1% (v/v) Tween 20, 0.5 mM DTT, 10 μM ZnCl2) and the whole was mixed. 100 μl of the mixture contained in the daughter plate was immediately transferred to the assay plate.
Each daughter plate was prepared with 80 different compounds at a 10 μM concentration, safe for the last two well rows, wherein each well was added with 10 μl of DMSO. These two rows represented the positive (row 11, +Hif-1) and negative (row 12, −Hif-1) controls.
After incubation for 1 h at 25° C., each well was washed with 3×300 μl of TBST buffer (50 mM Tris-HCl pH 8.0, 150 mM NaCl, 0.05% (v/v) Tween 20). Each well was then added with 60.8 ng of an europium-labelled anti-GST antibody (DELFIA Eu-N1 labeled; Perkin Elmer; product no. A D 0251) dissolved in 100 μl of TBST buffer containing 10 μM ZnCl2. After incubation for 1 h at room temperature, each well was washed with 3×300 μl of TBST buffer, then 100 μl of signal amplification solution (Enhancement Solution, Perkin Elmer product No. 1244-105) was added.
The plates were then read using a FUSION alpha-FP-HT reader (Perkin Elmer) in fluorescence mode for time resolution.
The activity of the compounds was calculated as follows. […]

Row | SMILES | IC50 [1] | IC50 [2] | IC50 [3]
1 | COC(=O)c1ccccc1-c1ccc(/C=C2/SC(=S)N(Cc3ccccc3)C2=O)o1 [Compound 1, 2-[5-(3-benzyl-4-oxo-2-thioxo-thiazolidine-5-ylidenemethyl)-furan-2-yl]benzoic acid methyl ester] | 6.66 µM | 0.37 µM | 8.6 µM
2 | NS(=O)(=O)c1ccc(-c2ccc(/C=C3/SC(=S)N(Cc4ccccc4)C3=O)o2)cc1 [Compound 7, 4-[5-(3-benzyl-4-oxo-2-thioxo-thiazolidine-5-ylidenemethyl)-furan-2-yl]benzenesulfonamide] | 3.16 µM | 0.87 µM | 4.9 µM
3 | COC(=O)c1ccc(-c2ccc(/C=C3/SC(=S)N(Cc4ccc(C)cc4)C3=O)o2)cc1 [Compound 9, 4-{5-[3-(4-methylbenzyl)-4-oxo-2-thioxo-thiazolidine-5-ylidenemethyl]-furan-2-yl}benzoic acid methyl ester] | > 5 µM | 0.18 µM | 5.9 µM
4 | COC(=O)c1ccc(-c2ccc(/C=C3/SC(=S)N(Cc4cccs4)C3=O)o2)cc1 [Compound 13, 4-{5-[3-(2-thienyl)methyl-4-oxo-2-thioxo-thiazolidine-5-ylidenemethyl]-furan-2-yl}benzoic acid methyl ester] | 9.64 µM | 0.58 µM | 14.7 µM

The remaining lines, values ahead:

Row | IC50 [1] | IC50 [2] | IC50 [3] | SMILES
5 | 2.07 µM | 0.7 µM | 11.1 µM | COC(=O)c1ccc(-c2ccc(/C=C3/SC(=S)N(CCCN4CCOCC4)C3=O)o2)cc1 [Compound 16, 4-{5-[3-(morpholine-4-yl-propyl)-4-oxo-2-thioxo-thiazolidine-5-ylidenemethyl]-furan-2-yl}benzoic acid methyl ester]
6 | 3.17 µM | 0.49 µM | 29.9 µM | COc1ccc(CCN2C(=O)/C(=C\c3ccc(-c4ccc(C#N)cc4)o3)SC2=S)cc1OC [Compound 18, 4-{5-[3-[2-(3,4-dimethoxyphenyl)ethyl]-4-oxo-2-thioxo-thiazolidine-5-ylidenemethyl]-furan-2-yl}benzonitrile]
7 | 7.29 µM | 0.33 µM | 1.4 µM | N#Cc1ccc(-c2ccc(/C=C3/SC(=S)N(CCc4ccccc4)C3=O)o2)cc1 [Compound 19, 4-{5-[3-(2-phenyl)ethyl-4-oxo-2-thioxo-thiazolidine-5-ylidenemethyl]-furan-2-yl}benzonitrile]
8 | 10.5 µM | 0.46 µM | 4.2 µM | COC(=O)c1ccc(-c2ccc(/C=C3/SC(=S)N(CCc4ccccc4)C3=O)o2)cc1 [Compound 20, 4-{5-[3-[2-(phenyl)ethyl]-4-oxo-2-thioxo-thiazolidine-5-ylidenemethyl]-furan-2-yl}benzoic acid methyl ester]
9 | 4.86 µM | 0.24 µM | 7.4 µM | COC(=O)c1ccc(-c2ccc(/C=C3/SC(=S)N(CCc4ccc(OC)c(OC)c4)C3=O)o2)cc1 [Compound 21, 4-{5-[3-[2-(3,4-dimethoxyphenyl)ethyl]-4-oxo-2-thioxo-thiazolidine-5-ylidenemethyl]-furan-2-yl}benzoic acid methyl ester]
